Where “and” joins values, the source holds several entries; their conditions need not be identical. Equal entries are not always repeated. Where two headings read alike, the source gives them in different places.
Key:
CYP2B6 = CYP2B6 mRNA induction in cultured human hepatocytes
CYP2C19 = CYP2C19 mRNA induction in cultured human hepatocytes
Experimental: (§1) Hepatocytes were cultured according to previously described methods [8]. […] Single-stranded cDNA was prepared from RNA with the RT Master Mix using the AB 7900HT Fast Real Time PCR System thermocycling program. Quantitative RT-PCR was carried out in triplicate. Relative quantification measures the change in mRNA expression in a test sample relative to that in a control sample (e.g., DMSO). This method assumes that the efficiency of the target amplification and the efficiency of the endogenous control amplification are approximately equal.
(§2) The maximal fold induction (Indmax) and half concentration to reach Indmax (IndC50) were determined based on the following equation: Foldinduction=1+Indmax-1×Ct/IndC50+Ct where Ct is the test drug concentration.

CYP2C8 = CYP2C8 mRNA induction in cultured human hepatocytes
Experimental: as §1, §2

P-gp = P-gp mRNA induction in cultured human hepatocytes; format: cell-based
P-gp (human MDR1) = P-gp (human MDR1) (Homo sapiens, UniProt P08183); experiment: In vitro P-gp inhibition: 3H-digoxin permeation across control and MDR1-expressing LLC-PK1 cell monolayers
Experimental: MDR1-expressing cells (porcine kidney epithelial LLC-PK1 cells transfected with human MDR1 cDNA) was used. The MDR1-expressing cells were seeded at a density of 4 × 10^4 cells/insert in plates and were incubated in a CO2 incubator (37 °C, CO2: 5%) for 7 to 9 days to prepare cell monolayers. […] After incubation for 4 h at 37 °C, a 70-μL aliquot of the incubation solutions was collected as the analytical sample from the opposite compartment of that spiked with test solutions (receiver compartment). The collected samples were immediately combined with 10 mL of scintillator, and the radioactivity was counted using the LSC. Permeability coefficient (Papp) of ^3H-digoxin was calculated using the following equation: Pappcm/sec=[dQ/dt]/A/C0 where dQ/dt is the transport rate (dpm/sec); A is the membrane area (cm^2); C0 is the initial concentration (dpm/mL). The ratio of permeability coefficient (Papp ratio) was calculated from the basal to apical Papp and apical to basal Papp according to the following equation: Pappratio=BasaltoapicalPapp/ApicaltobasalPapp
Furthermore, the ratios of the Papp ratios in MDR1-expressing cells to the Papp ratios in control cells were calculated as corrected Papp ratio according to the following equation: CorrectedPappratio=PappratiooftheMDR1expressingcells/Pappratioofthecontrolcells
The % of control was calculated from the corrected Papp ratio according to the following equation: \% \,of\,control=CorrectedPappratio\,in\,the\,absence\,or\,presence\,of\,inhibitors/CorrectedPappratio\,in\,the\,absence\,of\,inhibitors×100

CYP1A2 = CYP1A2 mRNA induction in cultured human hepatocytes
Experimental: as §1, §2

CYP2C9 = CYP2C9 mRNA induction in cultured human hepatocytes
Experimental: as §1, §2

[1] = plasma; ref FDA CP review; cited from earlier work
[2] = PBPK models of enzalutamide and M2 (Simcyp)
Text: Many of the physicochemical properties and plasma protein binding data were obtained internally and also referenced from FDA documents, which are available from the FDA website. […] Accordingly, the solution formulation option in the Simcyp model was used.
The PBPK models of CYP2C8 inhibitor (gemfibrozil), CYP3A4 substrate (midazolam), and P-gp substrate (digoxin) were used from the Simcyp software library with models that were verified for their intended purpose.

OAT3 = target: T1, OAT3 (Homo sapiens, UniProt Q8TCC7); experiment: In vitro OAT3 inhibition (internal data); format: cell-based
T1 sequence (Q8TCC7 1-542): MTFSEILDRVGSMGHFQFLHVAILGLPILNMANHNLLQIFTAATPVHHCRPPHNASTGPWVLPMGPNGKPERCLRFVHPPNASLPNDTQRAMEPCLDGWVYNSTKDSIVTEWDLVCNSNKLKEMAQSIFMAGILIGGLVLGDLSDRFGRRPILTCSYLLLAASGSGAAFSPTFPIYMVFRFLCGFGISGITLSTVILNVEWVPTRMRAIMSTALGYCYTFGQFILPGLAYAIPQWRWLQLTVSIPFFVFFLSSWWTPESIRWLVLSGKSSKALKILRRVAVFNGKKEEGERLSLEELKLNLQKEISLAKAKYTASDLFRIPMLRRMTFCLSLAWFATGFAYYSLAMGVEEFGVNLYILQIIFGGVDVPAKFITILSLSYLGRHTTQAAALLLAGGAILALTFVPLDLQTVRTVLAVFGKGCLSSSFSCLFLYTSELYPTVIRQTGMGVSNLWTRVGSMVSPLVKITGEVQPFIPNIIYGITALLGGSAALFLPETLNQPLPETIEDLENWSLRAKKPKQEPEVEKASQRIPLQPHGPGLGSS

[3] = mean
intestinal P-gp = details: multiple-dose 600 mg rifampicin, Western blot; cited from earlier work
[4] = 100 µmol/L (enzalutamide, M2: two lots of hepatocyte)
[5] = 3H-digoxin 1 µmol/L, additive 0.3 µmol/L
[6] = 3H-digoxin 1 µmol/L, additive 1 µmol/L
[7] = 3H-digoxin 1 µmol/L, additive 3 µmol/L
[8] = 3H-digoxin 1 µmol/L, additive 10 µmol/L
[9] = 3H-digoxin 1 µmol/L, additive 30 µmol/L
[10] = 3H-digoxin 1 µmol/L, additive 80 µmol/L
[11] = once-daily oral 160 mg enzalutamide for 49 days
[12] = single oral 160 mg enzalutamide
[13] = 3H-digoxin 1 µmol/L, additive 0.1 µmol/L
[14] = 3H-digoxin 1 µmol/L, additive 25 µmol/L

Sequence of P-gp (human MDR1) (P08183 whole entry): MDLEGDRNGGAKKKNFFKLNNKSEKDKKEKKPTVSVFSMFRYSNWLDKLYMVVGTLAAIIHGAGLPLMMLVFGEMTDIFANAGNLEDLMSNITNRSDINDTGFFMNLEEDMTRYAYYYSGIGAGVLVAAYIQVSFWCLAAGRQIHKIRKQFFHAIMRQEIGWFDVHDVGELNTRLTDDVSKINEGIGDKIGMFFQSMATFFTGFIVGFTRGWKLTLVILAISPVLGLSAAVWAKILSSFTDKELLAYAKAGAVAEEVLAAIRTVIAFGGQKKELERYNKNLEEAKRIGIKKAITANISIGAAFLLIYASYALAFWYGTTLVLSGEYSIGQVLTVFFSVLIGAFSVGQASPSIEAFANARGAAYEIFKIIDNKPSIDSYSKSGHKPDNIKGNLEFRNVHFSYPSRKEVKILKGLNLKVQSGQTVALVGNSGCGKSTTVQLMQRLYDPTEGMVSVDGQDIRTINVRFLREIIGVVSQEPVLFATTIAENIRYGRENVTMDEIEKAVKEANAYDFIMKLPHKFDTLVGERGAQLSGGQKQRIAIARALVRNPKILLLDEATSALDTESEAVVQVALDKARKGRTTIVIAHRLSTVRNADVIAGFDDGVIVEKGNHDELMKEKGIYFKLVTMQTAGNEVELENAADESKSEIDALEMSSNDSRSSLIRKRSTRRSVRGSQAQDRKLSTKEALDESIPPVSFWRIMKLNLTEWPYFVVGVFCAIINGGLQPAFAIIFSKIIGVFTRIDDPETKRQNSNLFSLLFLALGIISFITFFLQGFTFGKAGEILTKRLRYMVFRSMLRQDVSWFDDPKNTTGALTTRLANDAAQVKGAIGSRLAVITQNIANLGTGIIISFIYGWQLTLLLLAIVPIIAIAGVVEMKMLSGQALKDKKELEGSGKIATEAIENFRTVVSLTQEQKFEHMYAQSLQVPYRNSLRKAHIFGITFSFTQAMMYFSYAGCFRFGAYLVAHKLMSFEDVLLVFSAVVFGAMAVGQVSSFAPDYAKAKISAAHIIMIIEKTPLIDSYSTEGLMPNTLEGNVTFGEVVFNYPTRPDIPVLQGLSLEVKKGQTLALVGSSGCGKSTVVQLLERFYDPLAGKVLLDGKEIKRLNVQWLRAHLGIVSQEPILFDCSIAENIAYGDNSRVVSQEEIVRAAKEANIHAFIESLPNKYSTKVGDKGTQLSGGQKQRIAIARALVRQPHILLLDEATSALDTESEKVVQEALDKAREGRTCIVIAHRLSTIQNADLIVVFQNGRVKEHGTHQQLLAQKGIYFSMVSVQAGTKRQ
Experimental for CYP3A4: as §1, §2

Compound: CC1(C)C(=O)N(c2ccc(C#N)c(C(F)(F)F)c2)C(=S)N1c1ccc(C(=O)O)c(F)c1 [M1]
- Fold increase CYP2B6 mRNA (CYP2B6; 1 µmol/L): 0.724 ± 0.316 fold
- Fold increase CYP2B6 mRNA (CYP2B6; 10 µmol/L): 1.03 ± 0.43 fold
- Fold increase CYP2B6 mRNA (CYP2B6; [4]): 0.848 ± 0.337 fold
- Fold increase CYP2C19 mRNA (CYP2C19; 1 µmol/L): 0.855 ± 0.246 fold
- Fold increase CYP2C19 mRNA (CYP2C19; 10 µmol/L): 1.06 ± 0.10 fold
- Fold increase CYP2C19 mRNA (CYP2C19; [4]): 1.55 ± 0.80 fold
- Fold increase CYP2C8 mRNA (CYP2C8; 1 µmol/L): 1.11 ± 0.53 fold
- Fold increase CYP2C8 mRNA (CYP2C8; 10 µmol/L): 1.44 ± 0.50 fold
- Fold increase CYP2C8 mRNA (CYP2C8; [4]): 2.35 ± 1.66 fold
- Fold increase P-gp mRNA (P-gp; 1 µmol/L): 0.885 ± 0.553 fold
- Fold increase P-gp mRNA (P-gp; 10 µmol/L): 1.46 ± 0.79 fold
- Fold increase P-gp mRNA (P-gp; [4]): 1.32 ± 0.25 fold
- Fold increase CYP3A4 mRNA (CYP3A4; 1 µmol/L): 0.832 ± 0.417 fold
- Fold increase CYP3A4 mRNA (CYP3A4; 10 µmol/L): 1.17 ± 0.46 fold
- Fold increase CYP3A4 mRNA (CYP3A4; hepatocytes): 1.83 ± 0.98 fold
- Control cells Papp ratio (P-gp (human MDR1); [5]): 1.3
- Corrected Papp ratio (P-gp (human MDR1); [5]): 13.2
- MDR1-expressing cells Papp ratio (P-gp (human MDR1); [5]): 17.1
- Control cells Papp ratio (P-gp (human MDR1); [6]): 1.2
- Corrected Papp ratio (P-gp (human MDR1); [6]): 17.4
- MDR1-expressing cells Papp ratio (P-gp (human MDR1); [6]): 20.9
- Control cells Papp ratio (P-gp (human MDR1); [7]): 1.0
- Corrected Papp ratio (P-gp (human MDR1); [7]): 19.2
- MDR1-expressing cells Papp ratio (P-gp (human MDR1); [7]): 19.2
- Control cells Papp ratio (P-gp (human MDR1); [8]): 1.0
- Corrected Papp ratio (P-gp (human MDR1); [8]): 21.7
- MDR1-expressing cells Papp ratio (P-gp (human MDR1); [8]): 21.7
- Control cells Papp ratio (P-gp (human MDR1); [9]): 1.0
- Corrected Papp ratio (P-gp (human MDR1); [9]): 18.3
- MDR1-expressing cells Papp ratio (P-gp (human MDR1); [9]): 18.3
- Control cells Papp ratio (P-gp (human MDR1); [10]): 1.0
- Corrected Papp ratio (P-gp (human MDR1); [10]): 21.3
- MDR1-expressing cells Papp ratio (P-gp (human MDR1); [10]): 21.3
- Inhibition of P-gp-mediated 3H-digoxin transport (P-gp (human MDR1); result in words): did not inhibit
- Fold increase CYP1A2 mRNA (CYP1A2; 1 µmol/L): 0.697 ± 0.260 fold
- Fold increase CYP1A2 mRNA (CYP1A2; 10 µmol/L): 0.883 ± 0.303 fold
- Fold increase CYP1A2 mRNA (CYP1A2; [4]): 1.01 ± 0.59 fold
- Fold increase CYP2C9 mRNA (CYP2C9; 1 µmol/L): 0.853 ± 0.361 fold
- Fold increase CYP2C9 mRNA (CYP2C9; 10 µmol/L): 0.888 ± 0.172 fold
- Fold increase CYP2C9 mRNA (CYP2C9; [4]): 1.52 ± 0.63 fold

Compound: CC1(C)C(=O)N(c2ccc(C#N)c(C(F)(F)F)c2)C(=S)N1c1ccc(C(N)=O)c(F)c1 [M2, N-desmethyl enzalutamide]
- fu [1]: 0.0467
- CLint,HLM ([2]; PBPK model parameter, see text): 1.399 μL/min/mg protein
- CYP3A4 contribution to M2 elimination ([2]; set to recover M2 exposure after multiple doses of enzalutamide): 9%
- Ki (OAT3): 11500 nM
- AUCtau, observed [3, 11]: 278.3 µg·h/mL
- Cmax, observed [3, 11]: 12680 ng/mL
- Cmin, observed [3, 11]: 10570 ng/mL
- MPR (MWC), observed [3, 11]: 0.913
- AUCinf, observed [3, 12]: 395 µg·h/mL
- Cmax, observed [3, 12]: 887 ng/mL
- t1/2, observed [3, 12]: 179 h
- IC50 (P-gp (human MDR1); read-out: IC50 (P-gp-mediated 3H-digoxin transport), 3H-digoxin 1 µmol/L, MDR1-expressing LLC-PK1 cells): 1090 nM
- Ki (P-gp (human MDR1); read-out: Ki on P-gp, IC50 regarded as Ki, PBPK model input): 1090 nM

Compound: CCC1(c2ccccc2)C(=O)NC(=O)NC1=O [Phenobarbital, phenobarbital, reference compound]
- Fold increase CYP2B6 mRNA (CYP2B6; 750 µmol/L): 6.90 ± 3.66 fold
- Fold increase P-gp mRNA (P-gp; 750 µmol/L): 2.61 ± 0.59 fold

Compound: CO[C@H]1/C=C/O[C@@]2(C)Oc3c(C)c(O)c4c(O)c(c(/C=N/N5CCN(C)CC5)c(O)c4c3C2=O)NC(=O)/C(C)=C\C=C\[C@H](C)[C@H](O)[C@@H](C)[C@@H](O)[C@@H](C)[C@H](OC(C)=O)[C@@H]1C [Rifampicin, rifampicin]
- Increase in intestinal P-gp expression (intestinal P-gp): 3.5 fold
